Where two headings read alike, the source gives them in different places. Marks after values point to notes of the source that are not given here.
Columns and labels:
[1] = Plasma pharmacokinetics of capecitabine and its metabolites after oral capecitabine in CES2-modified mice; assay type: in vivo, mouse; settings: oral capecitabine 500 mg/kg; for AUC(0-t) / Cmax / Tmax: female, mouse, po, 500 mg/kg; for AUC(0-t) / Cmax / Tmax / AUC0-2h ratio (metabolite/capecitabine): plasma; for AUC(0-t): read-out: AUC0-2h; for Cmax: read-out: Cmax; for Tmax: read-out: Tmax
Method: (§1) For capecitabine 2-h experiments, 6–7 female mice received oral capecitabine (500 mg/kg, 10 μL/g), and tail vein blood samples were collected at 0.125, 0.25, 0.5 and 1 h after drug administration. For the vinorelbine 4-h experiment, 6-7 male mice received vinorelbine intravenously (10 mg/kg, 5 μL/g) or orally (10 mg/kg, 10 μL/g) using a blunt-ended needle. Tail vein blood samples were collected at 0.125, 0.25, 0.5, 1 and 2 h after drug administration. […] At the last time point in each experiment (2 or 4 h), mice were anesthetized with 5% isoflurane and blood was collected by cardiac puncture. […] Plasma was isolated from the blood by centrifugation at 9000 × g for 6 min at 4 °C, and the plasma fraction was collected and stored at −30 °C until analysis.
(§2) Concentrations of capecitabine (and its metabolites) and vinorelbine (and its metabolite) in mouse plasma samples and organ homogenates were determined using two independent validated high-performance liquid chromatography-tandem mass spectrometry assays.
(§3) Pharmacokinetic parameters were calculated by non-compartmental methods using the PK solver software. […] Differences were considered statistically significant when P < 0.05. All data are presented as mean ± SD.

[2] = Tissue concentrations of capecitabine and its metabolites 2 h after oral capecitabine in CES2-modified mice; assay type: in vivo, mouse; settings: oral capecitabine 500 mg/kg; for concentration at 2 h: female, mouse, oral, 500 mg/kg
Method: as §1, §2, §3

[3] = Ces2^–/– (Ces2 cluster knockout), female Ces2^–/– mice
[4] = Ces2^-/-, liver, female Ces2^–/– mice, read-out: Cliver (liver concentration)
[5] = Ces2^-/-, small intestine, female Ces2^–/– mice, read-out: CSI (small intestine tissue concentration)
[6] = Ces2^-/-A, liver, female Ces2^–/–A mice, read-out: Cliver (liver concentration)
[7] = Ces2^-/-A, small intestine tissue, female Ces2^–/–A mice, read-out: CSI (small intestine tissue concentration)
[8] = Ces2^-/-V, liver, female Ces2^–/–V mice, read-out: Cliver (liver concentration)
[9] = Ces2^-/-V, small intestine, female Ces2^–/–V mice, read-out: CSI (small intestine tissue concentration)
[10] = colon, female Ces2^–/– mice, read-out: Ccolon (colon concentration)
[11] = colon, female Ces2^–/–A mice, read-out: Ccolon (colon concentration)
[12] = colon, female Ces2^–/–V mice, read-out: Ccolon (colon concentration)
[13] = colon, female wild-type mice, read-out: Ccolon (colon concentration)
[14] = liver, female wild-type mice, read-out: Cliver (liver concentration)
[15] = small intestine contents, female Ces2^–/– mice, read-out: CSIC (small intestine contents concentration)
[16] = small intestine contents, female Ces2^–/–A mice, read-out: CSIC (small intestine contents concentration)
[17] = small intestine contents, female Ces2^–/–V mice, read-out: CSIC (small intestine contents concentration)
[18] = small intestine contents, female wild-type mice, read-out: CSIC (small intestine contents concentration)
[19] = small intestine tissue, female wild-type mice, read-out: CSI (small intestine tissue concentration)

With `CCCCCOC(=O)Nc1nc(=O)n([C@@H]2O[C@H](C)[C@@H](O)[C@H]2O)cc1F` [Capecitabine, reference compound] the “plasma AUC0-2h, fold greater in Ces2^–/– than in wild-type mice” value ([1]; female mice) was 5.3 fold, the “plasma AUC0-2h, lower in Ces2^–/–V than in Ces2^–/– mice” value ([1]; female mice) was 44% and the AUC(0-t) [1, 3] was 31300 ± 16600 ng·h/mL. For the same compound, the Cmax [1, 3] was 42.6 ± 17.8 µg/mL, the Tmax [1, 3] was 12.6 ± 3.6 min and the AUC(0-t) ([1]; female Ces2^–/–A mice) was 31500 ± 19200 ng·h/mL. For the same compound, the Cmax ([1]; female Ces2^–/–A mice) was 47 ± 34.1 µg/mL, the Tmax ([1]; female Ces2^–/–A mice) was 10.2 ± 4.2 min and the AUC(0-t) ([1]; female Ces2^–/–V mice) was 17500 ± 9710 ng·h/mL. For the same compound, the Cmax ([1]; female Ces2^–/–V mice) was 23.4 ± 14.1 µg/mL, the Tmax ([1]; female Ces2^–/–V mice) was 9.6 ± 3.6 min and the AUC(0-t) ([1]; female wild-type mice) was 5850 ± 1380 ng·h/mL. For the same compound, the Cmax ([1]; female wild-type mice) was 12.2 ± 3.8 µg/mL, the Tmax ([1]; female wild-type mice) was 11.4 ± 4.2 min and the “liver concentration, fold greater in Ces2^–/– than in wild-type mice” value ([2]; female mice) was 13.8 fold. For the same compound, the “liver concentration, reduction in Ces2^–/–A compared with Ces2^–/– mice” value ([2]; female mice) was 74.2%, the “liver concentration, reduction in Ces2^–/–V compared with Ces2^–/– mice” value ([2]; female mice) was 63.5% and the “small intestine concentration, fold higher in Ces2^-/- than in wild-type mice” value ([2]; female mice) was 10.6 fold. For the same compound, the concentration at 2 h [2, 4] was 18000 ± 8740 ng/g, the concentration at 2 h [2, 5] was 17200 ± 6550 ng/g and the concentration at 2 h [2, 6] was 4650 ± 1760 ng/g. For the same compound, the concentration at 2 h [2, 7] was 15200 ± 6020 ng/g, the concentration at 2 h [2, 8] was 6570 ± 3220 ng/g and the concentration at 2 h [2, 9] was 2410 ± 1190 ng/g. For the same compound, the concentration at 2 h ([2]; Ces2^–/– (Ces2 cluster knockout), small intestine, female Ces2^–/– mice, read-out: CSI (small intestine tissue concentration)) was 17200 ng/g, the concentration at 2 h [2, 10] was 14300 ± 9020 ng/g and the concentration at 2 h [2, 11] was 8780 ± 1630 ng/g. For the same compound, the concentration at 2 h [2, 12] was 4970 ± 2980 ng/g, the concentration at 2 h [2, 13] was 2250 ± 712 ng/g and the concentration at 2 h [2, 14] was 1300 ± 522 ng/g. The concentration at 2 h [2, 15] was 97200 ± 37200 ng/g, the concentration at 2 h [2, 16] was 88500 ± 25100 ng/g and the concentration at 2 h [2, 17] was 49700 ± 45900 ng/g. The concentration at 2 h [2, 18] was 26500 ± 16300 ng/g, the concentration at 2 h [2, 19] was 1630 ± 865 ng/g and the concentration at 2 h ([2]; small intestine, female Ces2^–/–V mice, read-out: CSI (small intestine tissue concentration)) was 2410 ± 1190 ng/g.

In the case of `C[C@H]1O[C@@H](n2cc(F)c(N)nc2=O)[C@H](O)[C@@H]1O` [5’-DFCR, 5’-deoxy-5-fluorocytidine], the “AUC0-2h ratio (metabolite/capecitabine)” value ([1]; female Ces2^–/– mice) is reported as 6.4 ± 1.9, the “AUC0-2h ratio (metabolite/capecitabine)” value ([1]; female Ces2^–/–A mice) is reported as 6.4 ± 2.4 and the “AUC0-2h ratio (metabolite/capecitabine)” value ([1]; female Ces2^–/–V mice) is reported as 8.0 ± 2.2. The “AUC0-2h ratio (metabolite/capecitabine)” value ([1]; female wild-type mice) was 21.3 ± 3.5, the AUC(0-t) [1, 3] was 175000 ± 37300 ng·h/mL and the Cmax [1, 3] was 121 ± 23.9 µg/mL. It also gave a Tmax [1, 3] of 27.6 ± 16.2 min, an AUC(0-t) ([1]; female Ces2^–/–A mice) of 165000 ± 45200 ng·h/mL and a Cmax ([1]; female Ces2^–/–A mice) of 117 ± 35.7 µg/mL. The Tmax ([1]; female Ces2^–/–A mice) was 27.6 ± 6 min, the AUC(0-t) ([1]; female Ces2^–/–V mice) was 123000 ± 34700 ng·h/mL and the Cmax ([1]; female Ces2^–/–V mice) was 80 ± 18.2 µg/mL. It also gave a Tmax ([1]; female Ces2^–/–V mice) of 36.6 ± 22.8 min, an AUC(0-t) ([1]; female wild-type mice) of 123000 ± 24900 ng·h/mL and a Cmax ([1]; female wild-type mice) of 101 ± 18 µg/mL. For the same compound, the Tmax ([1]; female wild-type mice) was 15 ± 8.4 min, the “Colon concentration ratio (metabolite/capecitabine)” value ([2]; female Ces2^–/– mice) was 2.0 ± 0.4 and the “Liver concentration ratio (metabolite/capecitabine)” value ([2]; female Ces2^–/– mice) was 2.0 ± 0.6. For the same compound, the “Small intestine concentration ratio (metabolite/capecitabine)” value ([2]; female Ces2^–/– mice) was 0.36 ± 0.20, the “Small intestine contents concentration ratio (metabolite/capecitabine)” value ([2]; female Ces2^–/– mice) was 0.11 ± 0.04 and the “Colon concentration ratio (metabolite/capecitabine)” value ([2]; female Ces2^–/–A mice) was 3.2 ± 0.2. The “Liver concentration ratio (metabolite/capecitabine)” value ([2]; female Ces2^–/–A mice) was 8.8 ± 3.6, the “Small intestine concentration ratio (metabolite/capecitabine)” value ([2]; female Ces2^–/–A mice) was 0.45 ± 0.21 and the “Small intestine contents concentration ratio (metabolite/capecitabine)” value ([2]; female Ces2^–/–A mice) was 0.10 ± 0.06. For the same compound, the “Colon concentration ratio (metabolite/capecitabine)” value ([2]; female Ces2^–/–V mice) was 5.1 ± 2.1, the “Liver concentration ratio (metabolite/capecitabine)” value ([2]; female Ces2^–/–V mice) was 4.0 ± 1.0***##^^ and the “Small intestine concentration ratio (metabolite/capecitabine)” value ([2]; female Ces2^–/–V mice) was 1.80 ± 0.88^###^^^. The “Small intestine contents concentration ratio (metabolite/capecitabine)” value ([2]; female Ces2^–/–V mice) was 0.13 ± 0.05, the “Colon concentration ratio (metabolite/capecitabine)” value ([2]; female wild-type mice) was 6.9 ± 1.3 and the “Liver concentration ratio (metabolite/capecitabine)” value ([2]; female wild-type mice) was 17.4 ± 7.3. The “Small intestine concentration ratio (metabolite/capecitabine)” value ([2]; female wild-type mice) was 3.20 ± 1.70, the “Small intestine contents concentration ratio (metabolite/capecitabine)” value ([2]; female wild-type mice) was 0.19 ± 0.08 and the concentration at 2 h [2, 4] was 33300 ± 11600 ng/g. It also gave a concentration at 2 h [2, 5] of 5410 ± 1430 ng/g, a concentration at 2 h [2, 6] of 36600 ± 5870 ng/g and a concentration at 2 h [2, 7] of 6220 ± 1830 ng/g. It also gave a concentration at 2 h [2, 8] of 23300 ± 8530 ng/g, a concentration at 2 h [2, 9] of 3600 ± 1570 ng/g and a concentration at 2 h [2, 10] of 25700 ± 10700 ng/g. It also gave a concentration at 2 h [2, 11] of 28200 ± 5870 ng/g, a concentration at 2 h [2, 12] of 21200 ± 8100 ng/g and a concentration at 2 h [2, 13] of 14900 ± 3800 ng/g. For the same compound, the concentration at 2 h [2, 14] was 20300 ± 5740 ng/g, the concentration at 2 h [2, 15] was 10800 ± 5610 ng/g and the concentration at 2 h [2, 16] was 8120 ± 2840 ng/g. It also gave a concentration at 2 h [2, 17] of 5180 ± 2410 ng/g, a concentration at 2 h [2, 18] of 4410 ± 2350 ng/g and a concentration at 2 h [2, 19] of 4510 ± 1340 ng/g.
